Data as given in patent US9012166B2, “Method for assaying histone methylation enzyme activity” (Kyushu Institute of Technology, priority 2010, dated 2015).

Tests used:
Type in all cases: biochemical
lysyl endopeptidase [1] = biological target: T1, lysyl endopeptidase (Achromobacter lyticus, UniProt P15636); experiment: LC/MS analysis of reaction between substrate compound and lysyl endopeptidase; conditions: Example 3; 37° C., 15 minutes
Experimental: (§1) Distilled water was added to 10 μL of 2×HMT buffer (100 mM Tris-HCl (pH 8.5), 20 mM MgCl2, 40 mM KCl, 20 mM 2-mercaptoethanol, 500 mM sucrose) and 1 μL of a BocLysMCA solution to adjust the total volume to 20 μL. To the resultant solution was added 30 μL of a peptidase solution (20 mg/mL trypsin or 20 mAU/mL lysyl endopeptidase), which was then mixed and incubated at 37° C. for 15 minutes. Then, the solution was applied to a liquid chromatograph mass spectrometer (LC/MS) for analysis. Analysis was performed by the same method as that for the above analysis except for using monomethylated BocLysMCA (i.e., “BocLys(Me)MCA”), dimethylated BocLysMCA (i.e., “BocLys(Me)2MCA”), or trimethylated BocLysMCA (i.e., “BocLys(Me)3MCA”) in place of BocLysMCA. Analysis was also carried out by the same method except for using, in place of the above-described peptidase solution, an equal volume of distilled water.

trypsin [2] = experiment: LC/MS analysis of reaction between substrate compound and trypsin; conditions: Example 3; 37° C., 15 minutes
Experimental: as §1

trypsin [3] = experiment: Mixing assay of substrate compound with peptidase (trypsin), AMC fluorescence; conditions: 1,000 μM BocLys(Me)nMCA and trypsin; λex 390 nm, λem 460 nm
Experimental: (§2) Distilled water was added to 10 μL of 2×HMT buffer (100 mM Tris-HCl (pH 8.5), 20 mM MgCl2, 40 mM KCl, 20 mM 2-mercaptoethanol, 500 mM sucrose) and 1 μL of a BocLysMCA solution to adjust the total volume to 20 μL. To the resultant solution was added 30 μL of a peptidase solution (20 mg/mL trypsin or 20 mAU/mL lysyl endopeptidase), which was then mixed and incubated at 37° C. for 15 minutes. Then, the fluorescence intensity of the solution was measured at an excitation wavelength (λex) of 390 nm and a fluorescence wavelength (λem) of 460 nm. The wavelength is a wavelength for detecting AMC (7-amino-4-methylcoumarin) released by the cleavage of the amide bond between Lys and MCA of BocLysMCA. The fluorescence intensity of AMC was similarly measured by performing a mixing assay by the same method as the above method except for using monomethylated BocLysMCA (i.e., “BocLys(Me)MCA”), dimethylated BocLysMCA (i.e., “BocLys(Me)2MCA”), or trimethylated BocLysMCA (i.e., “BocLys(Me)3MCA”) in place of BocLysMCA.

lysyl endopeptidase [4] = biological target: T1, lysyl endopeptidase; experiment: Mixing assay of substrate compound with peptidase (lysyl endopeptidase), AMC fluorescence; conditions: 1,000 μM BocLys(Me)nMCA and lysyl endopeptidase; λex 390 nm, λem 460 nm
Experimental: as §2

G9a (GST-mG9a) = biological target: T2, G9a (GST-mG9a) (Mus musculus, UniProt Q9Z148); experiment: Assay for measuring histone methyltransferase activity using peptidyl MCA, inhibitor evaluation with G9a; conditions: Example 9; Ac-histone H3 (1-9)-MCA; AMC fluorescence λex 390 nm/λem 460 nm; FIG. 19; read-out: IC50 for G9a
T2 sequence (Q9Z148 1-1263): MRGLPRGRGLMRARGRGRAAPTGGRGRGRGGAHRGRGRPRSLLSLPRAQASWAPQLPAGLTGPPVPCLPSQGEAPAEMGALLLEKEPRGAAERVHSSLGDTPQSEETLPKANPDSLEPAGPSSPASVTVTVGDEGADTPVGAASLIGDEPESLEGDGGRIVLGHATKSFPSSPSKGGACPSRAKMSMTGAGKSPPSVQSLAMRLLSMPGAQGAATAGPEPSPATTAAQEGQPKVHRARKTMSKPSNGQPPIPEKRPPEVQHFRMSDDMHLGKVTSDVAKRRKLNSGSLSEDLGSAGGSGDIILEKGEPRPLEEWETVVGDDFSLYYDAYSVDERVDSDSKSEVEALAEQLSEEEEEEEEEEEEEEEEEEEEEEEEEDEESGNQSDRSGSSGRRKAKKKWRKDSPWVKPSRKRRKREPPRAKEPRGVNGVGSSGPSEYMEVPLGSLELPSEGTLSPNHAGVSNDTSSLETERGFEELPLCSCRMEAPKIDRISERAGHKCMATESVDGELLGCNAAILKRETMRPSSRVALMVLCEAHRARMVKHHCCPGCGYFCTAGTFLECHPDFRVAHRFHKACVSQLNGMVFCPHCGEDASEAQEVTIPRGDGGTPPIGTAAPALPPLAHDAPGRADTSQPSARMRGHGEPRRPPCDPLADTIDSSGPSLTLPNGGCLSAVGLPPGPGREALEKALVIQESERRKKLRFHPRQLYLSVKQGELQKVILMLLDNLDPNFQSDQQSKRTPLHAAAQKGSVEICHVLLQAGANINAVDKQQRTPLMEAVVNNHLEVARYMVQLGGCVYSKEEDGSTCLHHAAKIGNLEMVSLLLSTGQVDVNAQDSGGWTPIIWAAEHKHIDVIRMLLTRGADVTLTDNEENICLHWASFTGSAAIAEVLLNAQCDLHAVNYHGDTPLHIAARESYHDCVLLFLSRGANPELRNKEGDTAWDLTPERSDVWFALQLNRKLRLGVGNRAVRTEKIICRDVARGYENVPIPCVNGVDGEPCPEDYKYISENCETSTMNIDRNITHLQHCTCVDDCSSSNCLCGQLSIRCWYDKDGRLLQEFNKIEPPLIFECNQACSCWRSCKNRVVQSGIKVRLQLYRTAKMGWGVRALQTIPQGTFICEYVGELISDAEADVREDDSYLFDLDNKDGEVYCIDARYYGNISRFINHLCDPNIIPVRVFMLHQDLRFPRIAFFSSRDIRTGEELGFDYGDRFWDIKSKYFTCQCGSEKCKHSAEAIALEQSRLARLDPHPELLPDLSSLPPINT
Experimental: When G9a was adopted as a histone methyltransferase, the following method was used. 10 μL of 2×HMT buffer (100 mM Tris-HCl (pH 8.5), 20 mM MgCl2, 40 mM KCl, 20 mM 2-mercaptoethanol, 500 mM sucrose), 0.4 μL of a BSA solution (150 μg/mL), 2 μL of GST-mG9a (0, 0.5 μg/μL), 1 μL of gliotoxin (any of various concentrations) and 2.6 μL of distilled water were mixed and then incubated at room temperature for 1 hour. Then, 2 μL of SAM (10 mM) and 2 μL of a peptidyl MCA (Ac-histone H3 (1-9)-MCA) solution (0.6 mM) were added thereto, which was then incubated at 37° C. for 1 hour. Thereafter, 30 μL of a trypsin solution (20 mg/mL) was added thereto, followed by incubation at 37° C. for 15 minutes. Then, the fluorescence intensity of the solution was measured at an excitation wavelength (λex) of 390 nm and a fluorescence wavelength (λem) of 460 nm. The final concentration of GST-mG9a during the measurement of fluorescence intensity was 0.05 μg/μL. The results of the assay for measuring histone methyltransferase activity are shown in the middle panel of FIG. 18.
The rate of the inhibition of methylation by gliotoxin was calculated from the results in the left panel and the middle panel of FIG. 18. Specifically, the value (%) was calculated which was obtained by dividing “a value obtained by subtracting “the fluorescence intensity of AMC when peptidase was added but gliotoxin was not added” from “the fluorescence intensity of AMC when both peptidase and gliotoxin were added”” by “a value obtained by subtracting “the fluorescence intensity of AMC when peptidase was added but gliotoxin was not added” from “the fluorescence intensity of AMC when no peptidase or gliotoxin was added”” and multiplying the resultant value by 100. The rate (%) of the inhibition of methylation by gliotoxin is shown in the right panel of FIG. 18.
Specifically, the assay for measuring histone methyltransferase activity was carried out by the same method as the method using G9a […] in Example 8 except for using S-Adenosyl-L-homocysteine (SAH) in place of gliotoxin. SAH is a by-product of the methylation reaction and is known to inhibit histone methyltransferase in a negative feedback manner. […] The rate (%) of the inhibition of methylation by SAH was calculated from the results in the left panel of FIG. 19. The results are shown in the right panel of FIG. 19.
When G9a was adopted as a histone methyltransferase, the following method was used. […] Then, the fluorescence intensity of the solution was measured at an excitation wavelength (λex) of 330 nm and a fluorescence wavelength (λem) of 380 nm or at an excitation wavelength (λex) of 390 nm and a fluorescence wavelength (λem) of 460 nm. The final concentration of GST-mG9a during the measurement of fluorescence intensity was 0 μg/μL or 0.05 μg/μL.

T1 sequence (P15636 206-473 limits assumed, species assumed): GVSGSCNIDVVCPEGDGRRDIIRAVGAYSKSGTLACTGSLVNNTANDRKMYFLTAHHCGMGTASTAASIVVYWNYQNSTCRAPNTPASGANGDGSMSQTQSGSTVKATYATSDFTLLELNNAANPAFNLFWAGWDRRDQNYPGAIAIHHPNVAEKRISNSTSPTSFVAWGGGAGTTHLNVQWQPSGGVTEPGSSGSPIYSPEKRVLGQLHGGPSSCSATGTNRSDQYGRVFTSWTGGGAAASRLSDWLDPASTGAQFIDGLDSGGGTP

## Cc1cc(=O)oc2cc(NC(=O)[C@H](CCCCN(C)C)NC(=O)OC(C)(C)C)ccc12 [BocLys(Me)2MCA, dimethylated BocLysMCA]
Lysyl endopeptidase [1]
  hydrolysis by lysyl endopeptidase (LC/MS peaks): almost no occurrence of hydrolysis
Trypsin [2]
  hydrolysis by trypsin (LC/MS peaks): almost no occurrence of hydrolysis
Trypsin [3]
  fluorescence intensity of AMC when the fluorescence intensity for BocLysMCA was set to 100%: 0.12%
Lysyl endopeptidase [4]
  fluorescence intensity of AMC when the fluorescence intensity for BocLysMCA was set to 100%: 0.053%

## Cc1cc(=O)oc2cc(NC(=O)[C@H](CCCC[N+](C)(C)C)NC(=O)OC(C)(C)C)ccc12 [BocLys(Me)3MCA, trimethylated BocLysMCA]
Lysyl endopeptidase [1]
  hydrolysis by lysyl endopeptidase (LC/MS peaks): almost no occurrence of hydrolysis
Trypsin [2]
  hydrolysis by trypsin (LC/MS peaks): almost no occurrence of hydrolysis
Trypsin [3]
  fluorescence intensity of AMC when the fluorescence intensity for BocLysMCA was set to 100%: 0.24%
Lysyl endopeptidase [4]
  fluorescence intensity of AMC when the fluorescence intensity for BocLysMCA was set to 100%: 0.25%

## CNCCCC[C@H](NC(=O)OC(C)(C)C)C(=O)Nc1ccc2c(C)cc(=O)oc2c1 [BocLys(Me)MCA, monomethylated BocLysMCA]
Lysyl endopeptidase [1]
  hydrolysis by lysyl endopeptidase (LC/MS peaks): almost no occurrence of hydrolysis
Trypsin [2]
  hydrolysis by trypsin (LC/MS peaks): almost no occurrence of hydrolysis
Trypsin [3]
  fluorescence intensity of AMC when the fluorescence intensity for BocLysMCA was set to 100%: 2.7%
Lysyl endopeptidase [4]
  fluorescence intensity of AMC when the fluorescence intensity for BocLysMCA was set to 100%: 0.096%

## Nc1ncnc2c1ncn2[C@@H]1O[C@H](CSCC[C@H](N)C(=O)O)[C@@H](O)[C@H]1O [SAH, S-Adenosyl-L-homocysteine]
G9a (GST-mG9a)
  IC50: 490 µM
